# Experimental data reported in PubChem BioAssay AID2060501 (Molecular Pharmacology Branch, DTP, NCI, 2025).
# System: 282377-053-R-J1-PDC complex spheroids, viability
# Test: Anticancer human tumor 282377-053-R-J1-PDC patient-derived colon adenocarcinoma cell line growth inhibition [GQUAD]
# Conditions: for IC50: curve of first compound; for viability, T/C: stronger effect = lower value
# In short: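 Viability of tumor cells grown as complex spheroids with endothelial and stromal cells, exposed to drug combinations. Top concentration at or near clinical Cmax (else 10 microM), diluted in half-log increments.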
# [1] = second compound 0.0316 µM, first compound 0.0316 µM
# [2] = second compound 0.0316 µM, first compound 0.1 µM
# [3] = second compound 0.0316 µM, first compound 0.316 µM
# [4] = second compound 0.0316 µM, first compound 1 µM
# [5] = second compound 0.0316 µM, first compound 3.16 µM
# [6] = second compound 0.0316 µM, first compound 10 µM
# [7] = second compound 0.1 µM, first compound 0.0316 µM
# [8] = second compound 0.1 µM, first compound 0.1 µM
# [9] = second compound 0.1 µM, first compound 0.316 µM
# [10] = second compound 0.1 µM, first compound 1 µM
# [11] = second compound 0.1 µM, first compound 3.16 µM
# [12] = second compound 0.1 µM, first compound 10 µM
# [13] = second compound 0.316 µM, first compound 0.0316 µM
# [14] = second compound 0.316 µM, first compound 0.1 µM
# [15] = second compound 0.316 µM, first compound 0.316 µM
# [16] = second compound 0.316 µM, first compound 1 µM
# [17] = second compound 0.316 µM, first compound 3.16 µM
# [18] = second compound 0.316 µM, first compound 10 µM
# [19] = second compound 1 µM, first compound 0.0316 µM
# [20] = second compound 1 µM, first compound 0.1 µM
# [21] = second compound 1 µM, first compound 0.316 µM
# [22] = second compound 1 µM, first compound 1 µM
# [23] = second compound 1 µM, first compound 3.16 µM
# [24] = second compound 1 µM, first compound 10 µM
# [25] = second compound 3.16 µM, first compound 0.0316 µM
# [26] = second compound 3.16 µM, first compound 0.1 µM
# [27] = second compound 3.16 µM, first compound 0.316 µM
# [28] = second compound 3.16 µM, first compound 1 µM
# [29] = second compound 3.16 µM, first compound 3.16 µM
# [30] = second compound 3.16 µM, first compound 10 µM
# [31] = second compound 10 µM, first compound 0.0316 µM
# [32] = second compound 10 µM, first compound 0.1 µM
# [33] = second compound 10 µM, first compound 0.316 µM
# [34] = second compound 10 µM, first compound 1 µM
# [35] = second compound 10 µM, first compound 3.16 µM
# [36] = second compound 10 µM, first compound 10 µM
# 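Also: spheroids exposed to compounds for 7 days before readout.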
# 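For viability, T/C in this document: percent of vehicle DMSO control viability with 100% = untreated-like growth.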
smiles,measurement,setting,value
COc1cc(C2c3cc4c(cc3C(OC3OC5COC(C)OC5C(O)C3O)C3COC(=O)C23)OCO4)cc(OC)c1O (centres undefined) + Cc1cnc(CNC(=O)c2c(=O)c3ccc(N4CCCN(C)CC4)nc3n3c2sc2ccccc23)cn1,IC50,second compound 0.0316 µM,> 10 µM
same,IC50,second compound 0.1 µM,9.72 µM
same,IC50,second compound 0.316 µM,> 10 µM
same,IC50,second compound 1 µM,> 10 µM
same,IC50,second compound 3.16 µM,0.979 µM
same,IC50,second compound 10 µM,0.337 µM
same,"viability, T/C",[1],127%
same,"viability, T/C",[2],95%
same,"viability, T/C",[3],126%
same,"viability, T/C",[4],90%
same,"viability, T/C",[5],68.3%
same,"viability, T/C",[6],50.8%
same,"viability, T/C",[7],109%
same,"viability, T/C",[8],91.3%
same,"viability, T/C",[9],107%
same,"viability, T/C",[10],76.1%
same,"viability, T/C",[11],72.7%
same,"viability, T/C",[12],48.6%
same,"viability, T/C",[13],103%
same,"viability, T/C",[14],91.9%
same,"viability, T/C",[15],87.1%
same,"viability, T/C",[16],68.8%
same,"viability, T/C",[17],66.4%
same,"viability, T/C",[18],50.9%
same,"viability, T/C",[19],70.7%
same,"viability, T/C",[20],51.3%
same,"viability, T/C",[21],70.2%
same,"viability, T/C",[22],63%
same,"viability, T/C",[23],62.7%
same,"viability, T/C",[24],41.6%
same,"viability, T/C",[25],60.5%
same,"viability, T/C",[26],57.5%
same,"viability, T/C",[27],49.8%
same,"viability, T/C",[28],48.5%
same,"viability, T/C",[29],52.1%
same,"viability, T/C",[30],37.4%
same,"viability, T/C",[31],45.4%
same,"viability, T/C",[32],49.7%
same,"viability, T/C",[33],56.3%
same,"viability, T/C",[34],49.1%
same,"viability, T/C",[35],42.1%
same,"viability, T/C",[36],26.3%
CC1COCCN1c1cc(C2(S(C)(=N)=O)CC2)nc(-c2ccnc3[nH]ccc23)n1 (centres undefined) + Cc1cnc(CNC(=O)c2c(=O)c3ccc(N4CCCN(C)CC4)nc3n3c2sc2ccccc23)cn1,IC50,second compound 0.0316 µM,> 10 µM
same,IC50,second compound 0.1 µM,4.51 µM
same,IC50,second compound 0.316 µM,5.63 µM
same,IC50,second compound 1 µM,3.78 µM
same,IC50,second compound 3.16 µM,3.52 µM
same,IC50,second compound 10 µM,< 0.0316 µM
same,"viability, T/C",[1],94.2%
same,"viability, T/C",[2],78.7%
same,"viability, T/C",[3],96.2%
same,"viability, T/C",[4],89.1%
same,"viability, T/C",[5],61.1%
same,"viability, T/C",[6],50.6%
same,"viability, T/C",[7],99.5%
same,"viability, T/C",[8],115%
same,"viability, T/C",[9],94.4%
same,"viability, T/C",[10],76.2%
same,"viability, T/C",[11],59.1%
same,"viability, T/C",[12],35.4%
same,"viability, T/C",[13],83.2%
same,"viability, T/C",[14],92.2%
same,"viability, T/C",[15],97.1%
same,"viability, T/C",[16],81%
same,"viability, T/C",[17],64.3%
same,"viability, T/C",[18],36.3%
same,"viability, T/C",[19],68.4%
same,"viability, T/C",[20],79.2%
same,"viability, T/C",[21],70.9%
same,"viability, T/C",[22],61%
same,"viability, T/C",[23],55.6%
same,"viability, T/C",[24],30%
same,"viability, T/C",[25],49.1%
same,"viability, T/C",[26],56.1%
same,"viability, T/C",[27],68.5%
same,"viability, T/C",[28],50.1%
same,"viability, T/C",[29],52.2%
same,"viability, T/C",[30],34.6%
same,"viability, T/C",[31],42.1%
same,"viability, T/C",[32],52%
same,"viability, T/C",[33],54.5%
same,"viability, T/C",[34],43.9%
same,"viability, T/C",[35],43.1%
same,"viability, T/C",[36],29.1%
